Measurements: patent US20240239775A1, “FXR REGULATOR, PREPARATION METHOD THEREFOR, PHARMACEUTICAL COMPOSITION THEREOF AND USE THEREOF” (QINGDAO RUIJI MEDICAL TECHNOLOGY CO., LTD., priority 2021, published 2024)

biological target: T1, FXR (Homo sapiens, UniProt Q96RI1); assay: FXR antagonist screening by TR-FRET (LanthaScreen TR-FRET FXR co-activation assay kit); type: biochemical; details: Table 1.1, FXR antagonistic activity; TR-FRET with CDCA; geometric means of at least two independent runs
T1 construct: 5 μL of 20 nM FXR-LBD Complete Coregulator buffer G; purchased ThermoFisher PV4833
T1 sequence (Q96RI1 262-486 limits assumed): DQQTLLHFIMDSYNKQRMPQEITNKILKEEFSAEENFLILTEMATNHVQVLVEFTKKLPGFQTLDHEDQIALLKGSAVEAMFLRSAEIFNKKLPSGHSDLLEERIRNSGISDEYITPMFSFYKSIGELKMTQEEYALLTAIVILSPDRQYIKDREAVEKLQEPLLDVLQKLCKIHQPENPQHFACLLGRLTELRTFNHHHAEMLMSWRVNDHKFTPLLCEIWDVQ
Description: FXR activity was evaluated by time-resolved fluorescence resonance energy transfer (TR-FRET) assay, using LanthaScreen™ TR-FRET FXR co-activation assay kit (ThermoFisher, Cat. PV4833). For agonist screening, 10 μL of Complete Coregulator buffer G containing the corresponding concentration of the compound to be tested, 5 μL of 20 nM FXR-LBD Complete Coregulator buffer G, and 5 μL of 2.0 μM Fluorescein-SRC2-2/20 nM Tb-anti-GST antibody Complete Coregulator buffer G were added to each well of a 384-well black plate (Coring) in sequence. […] Three duplicate wells were set up for each compound, with CDCA as the positive compound and DMSO as the solvent control. For antagonist screening, 5 μL of Complete Coregulator buffer G containing the corresponding concentration of the compound to be tested, 5 μL of 20 nM FXR-LBD Complete Coregulator buffer G, 5 μL of 200 μM CDCA FXR-LBD Complete Coregulator buffer G, and 5 μL of 2.0 μM Fluorescein-SRC2-2/20 nM Tb-anti-GST antibody Complete Coregulator buffer G were added to each well of a 384-well black plate (Coring) in sequence and incubated at room temperature for 10 h. Following operations were the same as those for agonist screening

CCOC(=O)c1oc2ccc(S(=O)(=O)N(CCc3ccccc3)Cc3c(F)cccc3C(F)(F)F)cc2c1C [Example M4-48, ethyl 3-methyl-5-(N-(2-fluoro-6-(trifluoromethyl)benzyl)-N-phenethylsulfamoyl)benzofuran-2-carboxylate] and CCOC(=O)c1oc2ccc(S(=O)(=O)N(CCc3ccccc3)Cc3ccc(Br)cc3C(F)(F)F)cc2c1C [Example M4-59, ethyl 3-methyl-5-(N-(2-trifluoromethyl-4-bromobenzyl)-N-phenethylsulfamoyl)benzofuran-2-carboxylate] fall in the same range of IC50: 50 to 100 µM for the first, 50 to 100 µM for the second.

CCOC(=O)c1oc2ccc(S(=O)(=O)N(CCc3ccccc3)Cc3ccc(OC(F)(F)F)cc3)cc2c1C [Example M4-34, ethyl 3-methyl-5-(N-(4-(trifluoromethoxy)benzyl)-N-phenethylsulfamoyl)benzofuran-2-carboxylate] and CCOC(=O)c1oc2ccc(S(=O)(=O)N(CCc3ccccc3)Cc3ccc(SC(F)(F)F)cc3)cc2c1C [Example M4-35, ethyl 3-methyl-5-(N-(4-(trifluoromethylthio)benzyl)-N-phenethylsulfamoyl)benzofuran-2-carboxylate] fall in the same range of IC50: 50 to 100 µM for the first, 50 to 100 µM for the second.

CCOC(=O)c1oc2ccc(S(=O)(=O)N(CCc3ccccc3)Cc3ccccc3)cc2c1C [Example F27-S8, ethyl 5-(N-benzyl-N-phenethylsulfamoyl)-3-methylbenzofuran-2-carboxylate] and CCOC(=O)c1oc2ccc(S(=O)(=O)N(CCc3ccccc3)Cc3ccccc3Cl)cc2c1C [Example M4-15, ethyl 3-methyl-5-(N-(2-chlorobenzyl)-N-phenethylsulfamoyl)benzofuran-2-carboxylate] fall in the same range of IC50: 50 to 100 µM for the first, 50 to 100 µM for the second.

CCOC(=O)c1oc2ccc(S(=O)(=O)N(CCc3ccccc3)Cc3cccc4ccccc34)cc2c1C [Example M4-43, ethyl 3-methyl-5-(N-(naphthalen-1-ylmethyl)-N-phenethylsulfamoyl)benzofuran-2-carboxylate] and CCOC(=O)c1oc2ccc(S(=O)(=O)N(CCc3ccccc3)Cc3ccc(C)cc3)cc2c1C [Example M4-31, ethyl 3-methyl-5-(N-(4-methylbenzyl)-N-phenethylsulfamoyl)benzofuran-2-carboxylate] fall in the same range of IC50: 50 to 100 µM for the first, 50 to 100 µM for the second.

CCOC(=O)c1oc2ccc(S(=O)(=O)N(CCc3ccccc3)c3ccccc3N3CCN(S(C)(=O)=O)CC3)cc2c1C [Example M10-93, ethyl 3-methyl-5-(N-(2-(4-(methylsulfonyl)piperazin-1-yl)phenyl)-N-phenethylsulfamoyl)benzofuran-2-carboxylate] and CCOC(=O)c1oc2ccc(S(=O)(=O)N(CCc3ccccc3)Cc3c(F)cc(Cl)cc3F)cc2c1C [Example M4-62, ethyl 3-methyl-5-(N-(2,6-difluoro-4-chlorobenzyl)-N-phenethylsulfamoyl)benzofuran-2-carboxylate] fall in the same range of IC50: 50 to 100 µM for the first, 50 to 100 µM for the second.

Cc1c(C(=O)O)oc2ccc(S(=O)(=O)N(CCc3ccccc3)Cc3ccc(Oc4ccccc4)cc3)cc12 [Example F27-S86] gave an IC50 of 10 to 50 µM.

same assay, conditions: Table 1.2, FXR antagonistic activity; TR-FRET with CDCA; geometric means of at least two independent runs

Cc1ccc(C(=O)N2CCN(c3ccccc3N(CCc3ccccc3)S(=O)(=O)c3ccc4oc(C(=O)O)c(C)c4c3)CC2)cc1C [Example F27-S132, 5-(N-(2-(4-(3,4-dimethylbenzoyl)piperazin-1-yl)phenyl)-N-phenethylsulfamoyl)3-methylbenzofuran-2-carboxylic acid] and Cc1cc(C)c(C(=O)N2CCN(c3ccccc3N(CCc3ccccc3)S(=O)(=O)c3ccc4oc(C(=O)O)c(C)c4c3)CC2)c(C)c1 [Example F27-S135, 5-(N-(2-(4-(2,4,6-trimethylbenzoyl)piperazin-1-yl)phenyl)-N-phenethylsulfamoyl)3-methylbenzofuran-2-carboxylic acid] fall in the same range of IC50: 0.1 to 10 µM for the first, 0.1 to 10 µM for the second.

CCOC(=O)c1oc2ccc(S(=O)(=O)N(CCc3ccccc3)c3ccccc3N3CCN(C(=O)c4cccs4)CC3)cc2c1C [Example M10-118, Ethyl 3-methyl-5-(N-phenethyl-N-(2-(4-(thiophene-2-carbonyl)piperazin-1-yl)phenyl)sulfamoyl)benzofuran-2-carboxylate] and CCOC(=O)c1oc2ccc(S(=O)(=O)N(CCc3ccccc3)c3ccccc3N3CCN(C(=O)c4cc(C)cs4)CC3)cc2c1C [Example M10-140, Ethyl 5-(N-(2-(4-(4-methylthiophene-2-formyl)piperazin-1-yl)phenyl)-N-phenethylsulfamoyl)3-methylbenzofuran-2-carboxylate] fall in the same range of IC50: 50 to 100 µM for the first, 50 to 100 µM for the second.

CCOC(=O)c1oc2ccc(S(=O)(=O)N(CCc3ccccc3)c3ccccc3N3CCN(C(=O)C(CC)CC)CC3)cc2c1C [Example M10-145, Ethyl 5-(N-(2-(4-(2-ethylbutyryl)piperazin-1-yl)phenyl)-N-phenethylsulfamoyl)3-methylbenzofuran-2-carboxylate] and CCOC(=O)c1oc2ccc(S(=O)(=O)N(CCc3ccccc3)c3ccccc3N3CCN(C(=O)c4c[nH]cn4)CC3)cc2c1C [Example M10-144, Ethyl 5-(N-(2-(4-(1H-imidazole-4-carbonyl)piperazin-1-yl)phenyl)-N-phenethylsulfamoyl)3-methylbenzofuran-2-carboxylate] fall in the same range of IC50: 50 to 100 µM for the first, 50 to 100 µM for the second.

Cc1c(C(=O)O)sc2ccc(S(=O)(=O)N(CCc3ccc(C(=O)O)cc3)c3ccccc3N3CCN(C(=O)c4sccc4Br)CC3)cc12 [Example F27-S168, 5-(N-(2-(4-(3-bromothiophene-2-carbonyl)piperazin-1-yl)phenyl)-N-(4-carboxyphenethyl)sulfamoyl)-3-toluenothiophene-2-carboxylic acid] and Cc1c(C(=O)O)sc2ccc(S(=O)(=O)N(Cc3ccccc3)c3ccccc3N3CCN(C(=O)c4sccc4Br)CC3)cc12 [Example F27-S181, 5-(N-benzyl-N-(2-(4-(3-bromothiophene-2-carbonyl)piperazin-1-yl)phenyl)sulfamoyl)-3-methylbenzothiophene-2-carboxylic acid] fall in the same range of IC50: 0.1 to 10 µM for the first, 0.1 to 10 µM for the second.

CCOC(=O)c1oc2ccc(S(=O)(=O)N(CCc3ccccc3)c3ccccc3N3CCN(C(=O)c4c(OC)cccc4OC)CC3)cc2c1C [Example M10-133, Ethyl 5-(N-(2-(4-(2,6-Dimethoxybenzoyl)piperazin-1-yl)phenyl)-N-phenethylsulfamoyl)3-methylbenzofuran-2-carboxylate] and CCOC(=O)c1oc2ccc(S(=O)(=O)N(CCc3ccccc3)c3ccccc3N3CCN(C(=O)c4c(C)cc(C)cc4C)CC3)cc2c1C [Example M10-135, Ethyl 5-(N-(2-(4-(2,4,6-trimethylbenzoyl)piperazin-1-yl)phenyl)-N-phenethylsulfamoyl)3-methylbenzofuran-2-carboxylate] fall in the same range of IC50: 50 to 100 µM for the first, 50 to 100 µM for the second.

CCOC(=O)c1sc2ccc(S(=O)(=O)N(CCc3cccs3)c3ccccc3N3CCN(C(=O)c4sccc4Br)CC3)cc2c1C [Example M10-183, Ethyl 5-(N-(2-(4-(3-bromothiophene-2-carbonyl)piperazin-1-yl)phenyl)-N-(2-(thiophen-2-yl)ethyl)sulfamoyl)-3-methylbenzothiophene-2-carboxylate] and CCOC(=O)c1sc2ccc(S(=O)(=O)N(CCc3ccc(OC)cc3)c3ccccc3N3CCN(C(=O)c4sccc4Br)CC3)cc2c1C [Example M10-177, Ethyl 5-(N-(2-(4-(3-bromothiophene-2-formyl)piperazin-1-yl)phenyl)-N-(4-methoxyphenethyl)sulfamoyl)3-methylbenzothiophene-2-carboxylate] fall in the same range of IC50: 50 to 100 µM for the first, 50 to 100 µM for the second.

CCOC(=O)c1oc2ccc(S(=O)(=O)N(CCc3ccccc3)c3ccccc3N3CC4(CCN(C(=O)c5sccc5Br)CC4)C3)cc2c1C [Example M10-149, Ethyl 5-(N-(2-(7-(3-bromothiophene-2-carbonyl)-2,7-diazaspiro[3.5]nonan-2-yl)phenyl)-N-phenethylsulfamoyl)-3-methylbenzofuran-2-carboxylate] and CCOC(=O)c1oc2ccc(S(=O)(=O)N(CCc3ccccc3)c3ccccc3N3CCN(C(=O)c4cnco4)CC3)cc2c1C [Example M10-131, Ethyl 3-methyl-5-(N-(2-(4-(oxazole-5-carbonyl)piperazin-1-yl)phenyl)-N-phenethylsulfamoyl)benzofuran-2-carboxylate] fall in the same range of IC50: 50 to 100 µM for the first, 50 to 100 µM for the second.

CC(=O)Nc1ccc(C(=O)N2CCN(c3ccccc3N(CCc3ccccc3)S(=O)(=O)c3ccc4oc(C(=O)O)c(C)c4c3)CC2)cc1 [Example F27-S109, 5-(N-(2-(4-(4-acetamidobenzoyl)piperazin-1-yl)phenyl)-N-phenethylsulfamoyl)-3-methylbenzofuran-2-carboxylic acid] and Cc1ccccc1C(=O)N1CCN(c2ccccc2N(CCc2ccccc2)S(=O)(=O)c2ccc3oc(C(=O)O)c(C)c3c2)CC1 [Example F27-S107, 3-methyl-5-(N-(2-(4-(2-methylbenzoyl)piperazin-1-yl)phenyl)-N-phenethylsulfamoyl)benzofuran-2-carboxylic acid] fall in the same range of IC50: 0.1 to 10 µM for the first, 0.1 to 10 µM for the second.
